How the values were obtained:
Format in all cases: in vivo
[1] = test system: Echinochloa oryzacola Vasing.; assay: Test Example 1: herbicidal activity, application before weed generation in submerged conditions (symbol A); conditions: application herbicide amount 320 g/ha
Outline: (§1)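 Ratings (5: ≥90%, near complete withering; 4: 70–<90%; 3: 40–<70%; 2: 20–<40%; 1: 5–<20%; 0: ≤5%) were assigned 3 weeks after the diluted emulsion was applied to the water surface of freshly sown, submerged pots.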

Monochoria vaginalis [2] = assay: Test Example 1: herbicidal activity, application before weed generation in submerged conditions (symbol C); conditions: application herbicide amount 320 g/ha
Outline: as §1

[3] = test system: Echinochloa oryzacola Vasing.; assay: Test Example 2: herbicidal activity, application during weed generation in submerged conditions (symbol A); conditions: Table 23; application herbicide amount 320 g/ha; grade 0-5 by criteria of Test Example 1
Outline: (§2)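 Treatment timing was the one- to two-leaf stage, with diluted emulsifiable compound dropped onto the paddy water (depth 4 cm) over alluvial soil. All three species grew from a mixed sowing in a 25° C. to 30° C. greenhouse. Injury was judged by eye 3 weeks on.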

Scirpus juncoides = assay: Test Example 2: herbicidal activity, application during weed generation in submerged conditions (symbol B); conditions: Table 23; application herbicide amount 320 g/ha; grade 0-5 by criteria of Test Example 1
Outline: as §2

Monochoria vaginalis [4] = assay: Test Example 2: herbicidal activity, application during weed generation in submerged conditions (symbol C); conditions: Table 23; application herbicide amount 320 g/ha; grade 0-5 by criteria of Test Example 1
Outline: as §2

Setaria viridis = assay: Test Example 4: herbicidal effect by soil treatment (symbol G); conditions: for G: Setaria viridis, herbicidal effect grade: 320 g/ha; for Herbicidal effect grade, G: Setaria viridis: application herbicide amount 320 g/ha
Outline: (§3)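 Seeds were sown in sterilized diluvial soil, covered with about 1.5 cm of soil, and the soil surface was sprayed with a water-diluted emulsion of the compound at a predetermined rate. Plants grew in a greenhouse at 25° C. to 30° C.; effects were scored visually 3 weeks after application.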

Abutilon theophrasti = assay: Test Example 4: herbicidal effect by soil treatment (symbol M); conditions: for M: Abutilon theophrasti, herbicidal effect grade: 320 g/ha; for Herbicidal effect grade, M: Abutilon theophrasti: application herbicide amount 320 g/ha
Outline: as §3

Galium spurium [5] = assay: Test Example 4: herbicidal effect by soil treatment (symbol Q); conditions: for Q: Galium spurium, herbicidal effect grade: 320 g/ha; for Herbicidal effect grade, Q: Galium spurium: application herbicide amount 320 g/ha
Outline: as §3

corn = assay: Test Example 4: effect on crop by soil treatment (symbol c); conditions: for c: corn, effect grade on crop: 320 g/ha; for Effect on crop grade, c: corn: application herbicide amount 320 g/ha
Outline: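 The test used sterilized diluvial soil. Seed was set down in spots and overlaid with about 1.5 cm of soil before growth in a greenhouse kept at 25° C. to 30° C.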

wheat = assay: Test Example 4: effect on crop by soil treatment (symbol e); conditions: for e: wheat, effect grade on crop: 320 g/ha; for Effect on crop grade, e: wheat: application herbicide amount 320 g/ha
Outline: (§4)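 Crop seeds, among them rice, wheat, beet and rapeseed, were sown in sterilized diluvial soil and covered with about 1.5 cm of soil. Boxes were kept in a greenhouse at 25° C. to 30° C. for plant growth.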

beet [6] = assay: Test Example 4: effect on crop by soil treatment (symbol f); conditions: for f: beet, effect grade on crop: 320 g/ha; for Effect on crop grade, f: beet: application herbicide amount 320 g/ha
Outline: as §4

Alopecurus myosuroides = assay: Test Example 5: herbicidal effect by foliage application, plastic box (symbol J); conditions: 320 g/ha, 3 weeks after application
Outline: (§5)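 Sowing in sterilized diluvial soil, 14 days' greenhouse growth at 25° C. to 30° C., then uniform small-sprayer foliar application of aqueous emulsion dilution; plants scored three weeks afterwards.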

Lolium multiflorum Lam. = assay: Test Example 5: herbicidal effect by foliage application, plastic box (symbol K); conditions: 320 g/ha, 3 weeks after application
Outline: as §5

Amaranthus retroflexus = assay: Test Example 5: herbicidal effect by foliage application, plastic box (symbol N); conditions: 320 g/ha, 3 weeks after application
Outline: as §5

Galium spurium [7] = assay: Test Example 5: herbicidal effect by foliage application, plastic box (symbol Q); conditions: 320 g/ha, 3 weeks after application
Outline: as §5

rice plant = assay: Test Example 5: effect on crop by foliage application, plastic box (symbol b); conditions: 320 g/ha, 3 weeks after application
Outline: (§6)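 Plants were raised from seed in a greenhouse (25° C. to 30° C.) after sowing in a plastic box of sterilized diluvial soil.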

beet [8] = assay: Test Example 5: effect on crop by foliage application, plastic box (symbol f); conditions: 320 g/ha, 3 weeks after application
Outline: as §6

| SMILES | Herbicidal effect grade, A: Echinochloa oryzacola Vasing. [1] | Herbicidal effect grade, C: Monochoria vaginalis (Monochoria vaginalis [2]) | Herbicidal effect grade, A: Echinochloa oryzacola Vasing. [3] | Herbicidal effect grade, B: Scirpus juncoides (Scirpus juncoides) | Herbicidal effect grade, C: Monochoria vaginalis (Monochoria vaginalis [4]) | G: Setaria viridis, herbicidal effect grade (Setaria viridis) | M: Abutilon theophrasti, herbicidal effect grade (Abutilon theophrasti) | Q: Galium spurium, herbicidal effect grade (Galium spurium [5]) | c: corn, effect grade on crop (corn) | e: wheat, effect grade on crop (wheat) | f: beet, effect grade on crop (beet [6]) | J: Alopecurus myosuroides, herbicidal effect (criteria 0-5) (Alopecurus myosuroides) | K: Lolium multiflorum Lam., herbicidal effect (criteria 0-5) (Lolium multiflorum Lam.) | N: Amaranthus retroflexus, herbicidal effect (criteria 0-5) (Amaranthus retroflexus) | Q: Galium spurium, herbicidal effect (criteria 0-5) (Galium spurium [7]) | b: directly sowed rice plant, effect on crop (criteria 0-5) (rice plant) | f: beet, effect on crop (criteria 0-5) (beet [8]) | A (Echinochloa oryzacola Vasing.) herbicidal effect grade [1] | C (Monochoria vaginalis) herbicidal effect grade (Monochoria vaginalis [2]) | Herbicidal effect grade, G: Setaria viridis (Setaria viridis) | also measured |
| --- | --- | --- | --- | --- | --- | --- | --- | --- | --- | --- | --- | --- | --- | --- | --- | --- | --- | --- | --- | --- | --- |
| CCC(Oc1ccc2ncc(Br)cc2c1)C(=O)OC1=C(c2c(C)cc(C)cc2C)C(=O)C(CC(C)=NOC)C1 (centres unmarked) [1-140] | 5 (Herbicidal ratio of 90% or more (almost completely withered)) | 1 (Herbicidal ratio of 5% or higher and lower than 20%) | 5 (Herbicidal ratio of 90% or more (almost completely withered)) | 5 (Herbicidal ratio of 90% or more (almost completely withered)) | 3 (Herbicidal ratio of 40% or higher and lower than 70%) | 5 (Herbicidal ratio of 90% or more (almost completely withered)) | 5 (Herbicidal ratio of 90% or more (almost completely withered)) | 0 (Herbicidal ratio of 5% or lower (almost no effect)) | 4 (Herbicidal ratio of 70% or higher and lower than 90%) | 5 (Herbicidal ratio of 90% or more (almost completely withered)) | 0 (Herbicidal ratio of 5% or lower (almost no effect)) | 5 (Herbicidal ratio of 90% or more (almost completely withered)) | 5 (Herbicidal ratio of 90% or more (almost completely withered)) | 3 (Herbicidal ratio of 40% or higher and lower than 70%) | 2 (Herbicidal ratio of 20% or higher and lower than 40%) | 5 (Herbicidal ratio of 90% or more (almost completely withered)) | 3 (Herbicidal ratio of 40% or higher and lower than 70%) | – | – | – | – |
| Cc1cc(-n2cc(Cl)cn2)cc(C)c1C1=C(O)CC(CC(=NOCC(F)(F)F)C(C)C)C1=O (centres unmarked) [9-014] | – | – | 2 (Herbicidal ratio of 20% or higher and lower than 40%) | 0 (Herbicidal ratio of 5% or lower (almost no effect)) | 0 (Herbicidal ratio of 5% or lower (almost no effect)) | – | – | – | – | – | – | – | – | – | – | – | – | 5 (Herbicidal ratio of 90% or more (almost completely withered)) | 2 (Herbicidal ratio of 20% or higher and lower than 40%) | 3 (Herbicidal ratio of 40% or higher and lower than 70%) | Herbicidal effect grade, M: Abutilon theophrasti (Abutilon theophrasti): 0 (Herbicidal ratio of 5% or lower (almost no effect)); Herbicidal effect grade, Q: Galium spurium (Galium spurium [5]): 0 (Herbicidal ratio of 5% or lower (almost no effect)); Effect on crop grade, c: corn (corn): 0 (Herbicidal ratio of 5% or lower (almost no effect)); Effect on crop grade, e: wheat (wheat): 0 (Herbicidal ratio of 5% or lower (almost no effect)); Effect on crop grade, f: beet (beet [6]): 0 (Herbicidal ratio of 5% or lower (almost no effect)); J: Alopecurus myosuroides, herbicidal effect grade (Alopecurus myosuroides): 4 (Herbicidal ratio of 70% or higher and lower than 90%); K: Lolium multiflorum Lam., herbicidal effect grade (Lolium multiflorum Lam.): 4 (Herbicidal ratio of 70% or higher and lower than 90%); N: Amaranthus retroflexus, herbicidal effect grade (Amaranthus retroflexus): 0 (Herbicidal ratio of 5% or lower (almost no effect)); Q: Galium spurium, herbicidal effect grade (Galium spurium [7]): 0 (Herbicidal ratio of 5% or lower (almost no effect)); b: directly sowed rice plant, effect on crop grade (rice plant): 5 (Herbicidal ratio of 90% or more (almost completely withered)); f: beet, effect on crop grade (beet [8]): 0 (Herbicidal ratio of 5% or lower (almost no effect)) |
| CC(CC1CC(O)=C(c2c(C)cc(C)cc2C)C1=O)=NOCC1OCCO1 (centres unmarked) [1-111] | 5 (Herbicidal ratio of 90% or more (almost completely withered)) | 1 (Herbicidal ratio of 5% or higher and lower than 20%) | 5 (Herbicidal ratio of 90% or more (almost completely withered)) | 1 (Herbicidal ratio of 5% or higher and lower than 20%) | 0 (Herbicidal ratio of 5% or lower (almost no effect)) | 5 (Herbicidal ratio of 90% or more (almost completely withered)) | 4 (Herbicidal ratio of 70% or higher and lower than 90%) | 0 (Herbicidal ratio of 5% or lower (almost no effect)) | 1 (Herbicidal ratio of 5% or higher and lower than 20%) | 5 (Herbicidal ratio of 90% or more (almost completely withered)) | 0 (Herbicidal ratio of 5% or lower (almost no effect)) | 5 (Herbicidal ratio of 90% or more (almost completely withered)) | 5 (Herbicidal ratio of 90% or more (almost completely withered)) | 0 (Herbicidal ratio of 5% or lower (almost no effect)) | 2 (Herbicidal ratio of 20% or higher and lower than 40%) | 5 (Herbicidal ratio of 90% or more (almost completely withered)) | 0 (Herbicidal ratio of 5% or lower (almost no effect)) | – | – | – | – |
| Cc1cc(Br)cc(C)c1C1=C(O)CC(CC(=O)C(C)C)C1=O (racemic) [10-003] | – | – | 3 (Herbicidal ratio of 40% or higher and lower than 70%) | 0 (Herbicidal ratio of 5% or lower (almost no effect)) | 0 (Herbicidal ratio of 5% or lower (almost no effect)) | – | – | – | – | – | – | – | – | – | – | – | – | 1 (Herbicidal ratio of 5% or higher and lower than 20%) | 0 (Herbicidal ratio of 5% or lower (almost no effect)) | 4 (Herbicidal ratio of 70% or higher and lower than 90%) | Herbicidal effect grade, M: Abutilon theophrasti (Abutilon theophrasti): 0 (Herbicidal ratio of 5% or lower (almost no effect)); Herbicidal effect grade, Q: Galium spurium (Galium spurium [5]): 0 (Herbicidal ratio of 5% or lower (almost no effect)); Effect on crop grade, c: corn (corn): 0 (Herbicidal ratio of 5% or lower (almost no effect)); Effect on crop grade, e: wheat (wheat): 0 (Herbicidal ratio of 5% or lower (almost no effect)); Effect on crop grade, f: beet (beet [6]): 0 (Herbicidal ratio of 5% or lower (almost no effect)); J: Alopecurus myosuroides, herbicidal effect grade (Alopecurus myosuroides): 3 (Herbicidal ratio of 40% or higher and lower than 70%); K: Lolium multiflorum Lam., herbicidal effect grade (Lolium multiflorum Lam.): 4 (Herbicidal ratio of 70% or higher and lower than 90%); N: Amaranthus retroflexus, herbicidal effect grade (Amaranthus retroflexus): 0 (Herbicidal ratio of 5% or lower (almost no effect)); Q: Galium spurium, herbicidal effect grade (Galium spurium [7]): 0 (Herbicidal ratio of 5% or lower (almost no effect)); b: directly sowed rice plant, effect on crop grade (rice plant): 4 (Herbicidal ratio of 70% or higher and lower than 90%); f: beet, effect on crop grade (beet [8]): 0 (Herbicidal ratio of 5% or lower (almost no effect)) |
